The text below walks through data of patent publication US20250346600A1, “TRICYCLIC DERIVATIVES AND RELATED USES” (MOMA Therapeutics, Inc., priority 2023, published 2025).

The structures appear in SMILES notation. Like-named read-outs stand apart in the source and are kept apart here. Where only a bound is given, the exact number is not on record here.

Experiment [1] has as its target Full length WRN protein (aa 2-1432) (Homo sapiens (Human), UniProt Q14191). As to the kind of experiment: WRN ATPase ADP-Glo biochemical assay, Assay Format B (100 μM ATP). As to conditions: 0.25 nM WRN, 100 nM C6.18 ssDNA, 60 min preincubation, read-out: ATPase ADPGlo AC50 (uM)- Assay Format B. Background: ADP-Glo first removes unused ATP, then detects ADP through luciferase.

For experiment [2], the system named is HCT116 cells. As to the kind of experiment: HCT116 (MSI) 7 day viability, CellTiter Glo. The class given is cell-based. To be noted: 7 days, read-out: HCT116 (MSI) Viability 7 Day Abs AC50. On the procedure:
(§1) Compounds were dissolved in DMSO to a concentration of 10 mM. Compounds were then serially diluted in 10 3-fold steps in DMSO using an EVO (Tecan). Plates were then spun down for 1 minute at 1,000 RPM at room temperature.
(§2) The colon carcinoma lines HCT116 (RRID: CVCL_0291) and HT29 (RRID: CVCL_0320) were obtained from ATCC. […] All cells were maintained at 37° C. with 5% CO2 incubator.
(§3) After harvesting, cells were spun down for 5 minutes at 1200 RPM. Cells were resuspended in 10 mL of growth media and counted using Countess (Thermo Fisher). Cell concentrations were adjusted to 50 cells/well for HCT116 and 500 cells/well for HT29. 50 μL of diluted cells were added to compound treated 384 well plates using a 12 channel, 300 uL electronic handheld pipette (Integra). Cell treated plates were placed in 37 C with 5% CO2 incubator for 7 days.
(§4) Afterwards, cells were removed from incubator and equilibrated to room temperature for 15 minutes. 35 uL of CellTiter Glo (Promega #G7573) reagent were added to each well using a 12 channel, 300 uL electronic handheld pipette (Integra). Plates were incubated for 20 minutes at room temperature. Luminescence quantification was performed using Envision (PerkinElmer).
(§5) For data analysis, the assay background signal was determined in wells containing medium, but no cells. Potencies were calculated by linear least squares fit to the four-parameter logistic IC50 equation. The reported IC50 values are the geometrical mean of at least 2 independent replicates.

Experiment [3] has as its system HT29 cells. As to the kind of experiment: HT29 (MSS) 7 day viability, CellTiter Glo. In kind it is cell-based. As to conditions: 7 days, read-out: HT29 (MSS) Viability 7 Day CTGAbs AC50. The method, then:
as §1, §2, §3, §4, §5
A general note: ATP-based viability assays read luminescence as a measure of living cells.

Chain of Full length WRN protein (aa 2-1432) (Q14191 2-1432): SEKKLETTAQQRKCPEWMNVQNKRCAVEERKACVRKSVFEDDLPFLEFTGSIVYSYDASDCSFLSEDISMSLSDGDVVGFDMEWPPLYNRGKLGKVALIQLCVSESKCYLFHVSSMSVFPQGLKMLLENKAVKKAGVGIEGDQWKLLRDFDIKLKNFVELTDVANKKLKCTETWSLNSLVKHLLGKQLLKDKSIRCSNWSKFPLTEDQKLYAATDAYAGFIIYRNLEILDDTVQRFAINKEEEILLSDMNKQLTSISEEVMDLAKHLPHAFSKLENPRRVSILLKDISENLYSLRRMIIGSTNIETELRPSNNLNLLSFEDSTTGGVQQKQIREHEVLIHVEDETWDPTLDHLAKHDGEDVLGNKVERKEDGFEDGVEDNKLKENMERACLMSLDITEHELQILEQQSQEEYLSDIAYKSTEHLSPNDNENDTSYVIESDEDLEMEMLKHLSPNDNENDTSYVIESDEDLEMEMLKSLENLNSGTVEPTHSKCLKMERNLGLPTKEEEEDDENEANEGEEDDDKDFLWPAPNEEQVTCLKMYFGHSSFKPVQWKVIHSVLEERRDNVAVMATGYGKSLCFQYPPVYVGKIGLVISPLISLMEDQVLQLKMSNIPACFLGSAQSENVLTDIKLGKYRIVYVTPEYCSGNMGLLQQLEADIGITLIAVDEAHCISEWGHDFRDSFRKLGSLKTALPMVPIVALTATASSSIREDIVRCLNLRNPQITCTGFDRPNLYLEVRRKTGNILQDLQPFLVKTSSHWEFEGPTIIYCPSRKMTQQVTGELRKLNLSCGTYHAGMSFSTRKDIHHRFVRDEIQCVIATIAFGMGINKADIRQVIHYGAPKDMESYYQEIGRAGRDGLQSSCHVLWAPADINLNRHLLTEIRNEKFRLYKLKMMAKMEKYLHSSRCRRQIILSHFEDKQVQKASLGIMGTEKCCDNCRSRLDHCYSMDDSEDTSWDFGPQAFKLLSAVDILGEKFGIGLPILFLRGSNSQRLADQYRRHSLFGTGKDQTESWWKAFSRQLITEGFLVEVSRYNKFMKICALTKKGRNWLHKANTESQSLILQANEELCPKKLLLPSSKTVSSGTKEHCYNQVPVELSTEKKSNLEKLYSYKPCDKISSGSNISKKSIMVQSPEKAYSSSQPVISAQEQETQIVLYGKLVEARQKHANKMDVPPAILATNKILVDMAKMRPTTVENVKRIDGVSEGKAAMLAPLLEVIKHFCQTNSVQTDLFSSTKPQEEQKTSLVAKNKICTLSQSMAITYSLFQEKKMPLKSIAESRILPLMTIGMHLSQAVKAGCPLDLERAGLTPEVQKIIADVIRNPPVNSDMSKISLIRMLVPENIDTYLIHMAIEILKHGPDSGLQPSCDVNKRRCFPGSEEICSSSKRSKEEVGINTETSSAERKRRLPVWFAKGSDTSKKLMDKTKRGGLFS

One may read the AC50 as the concentration giving half of the maximal activity seen. Turning to `C=CC(=O)N1CCc2nn(-c3ccc(C4CC4)cc3O)c3c2C(C1)N(C(=O)c1cnc(Cl)c(F)c1N)CC3` (stereo not drawn) [Compound 210, 1-(5-(4-amino-6-chloro-5-fluoronicotinoyl)-2-(4-cyclopropyl-2-hydroxyphenyl)-2,3,4,5,5a,6,8,9-octahydro-7H-1,2,5,7-tetraazabenzo[cd]azulen-7-yl)prop-2-en-1-one], the AC50 in experiment [1] was 0.0015 to 0.005 µM; in experiment [2] (Homo sapiens, HCT-116, 168 h) it was 1 to 100 nM; in experiment [3] (Homo sapiens, HT-29, 168 h), greater than 3000 nM.

As to `C=CC(=O)N1CCc2nn(-c3ccc(C4CC4)cc3O)c3c2C(C1)N(C(=O)c1cnc(SC)cc1N)CC3` (stereo not drawn) [Compound 211, 1-(5-(4-amino-6-(methylthio)nicotinoyl)-2-(4-cyclopropyl-2-hydroxyphenyl)-2,3,4,5,5a,6,8,9-octahydro-7H-1,2,5,7-tetraazabenzo[cd]azulen-7-yl)prop-2-en-1-one], the AC50 in experiment [1] is 0.0015 to 0.005 µM; in experiment [2] (Homo sapiens, HCT-116, 168 h), 1 to 100 nM; in experiment [3] (Homo sapiens, HT-29, 168 h), greater than 3000 nM.

For `C=CC(=O)N1CCc2nn(-c3ccc(C4CC4)cc3O)c3c2C(C1)N(C(=O)c1c(N)cc(Br)c2nc[nH]c12)CC3` (stereo not drawn) [Compound 212, 1-(5-(6-amino-4-bromo-1H-benzo[d]imidazole-7-carbonyl)-2-(4-cyclopropyl-2-hydroxyphenyl)-2,3,4,5,5a,6,8,9-octahydro-7H-1,2,5,7-tetraazabenzo[cd]azulen-7-yl)prop-2-en-1-one], the AC50 in experiment [1] was 0.0015 to 0.005 µM; in experiment [2] (Homo sapiens, HCT-116, 168 h), 1 to 100 nM; in experiment [3] (Homo sapiens, HT-29, 168 h) it was greater than 3000 nM.

Regarding `C=CC(=O)N1CCc2nn(-c3ccc(C4CC4)cc3O)c3c2C(C1)N(C(=O)c1ccc(C(F)(F)F)nc1)CC3` (stereo not drawn) [Compound 213, 1-(2-(4-cyclopropyl-2-hydroxyphenyl)-5-(6-(trifluoromethyl)nicotinoyl)-2,3,4,5,5a,6,8,9-octahydro-7H-1,2,5,7-tetraazabenzo[cd]azulen-7-yl)prop-2-en-1-one], the AC50 in experiment [1] was 0.005 to 0.015 µM; in experiment [2] (Homo sapiens, HCT-116, 168 h) it was 1 to 100 nM; in experiment [3] (Homo sapiens, HT-29, 168 h), greater than 3000 nM.

Regarding `C=CC(=O)N1CCc2nn(-c3ccc(C4CC4)cc3O)c3c2C(C1)N(C(=O)c1cnc(SC(F)(F)F)c(F)c1N)CC3` (stereo not drawn) [Compound 214, 1-(5-(4-amino-5-fluoro-6-((trifluoromethyl)thio)nicotinoyl)-2-(4-cyclopropyl-2-hydroxyphenyl)-2,3,4,5,5a,6,8,9-octahydro-7H-1,2,5,7-tetraazabenzo[cd]azulen-7-yl)prop-2-en-1-one], the AC50 was 0.005 to 0.015 µM in experiment [1]; 1 to 100 nM in experiment [2] (Homo sapiens, HCT-116, 168 h); greater than 3000 nM in experiment [3] (Homo sapiens, HT-29, 168 h).

In the case of `C=CC(=O)N1CCc2nn(-c3ccc(C4CC4)c(F)c3O)c3c2C(C1)N(C(=O)c1cnc(Br)cc1N)CC3` (stereo not drawn) [Compound 215, 1-(5-(4-amino-6-bromonicotinoyl)-2-(4-cyclopropyl-3-fluoro-2-hydroxyphenyl)-2,3,4,5,5a,6,8,9-octahydro-7H-1,2,5,7-tetraazabenzo[cd]azulen-7-yl)prop-2-en-1-one], the AC50 in experiment [1] was 0.0015 to 0.005 µM; in experiment [2] (Homo sapiens, HCT-116, 168 h), 1 to 100 nM; in experiment [3] (Homo sapiens, HT-29, 168 h) it was greater than 3000 nM.

On to `C=CC(=O)N1CCc2nn(-c3ccc(C4CC4)cc3O)c3c2C(C1)N(C(=O)c1cnc(C(F)(F)F)c(OC)c1N)CC3` (stereo not drawn) [Compound 216, 1-(5-(4-amino-5-methoxy-6-(trifluoromethyl)nicotinoyl)-2-(4-cyclopropyl-2-hydroxyphenyl)-2,3,4,5,5a,6,8,9-octahydro-7H-1,2,5,7-tetraazabenzo[cd]azulen-7-yl)prop-2-en-1-one], for which the AC50 was 0.0015 to 0.005 µM in experiment [1], 1 to 100 nM in experiment [2] and greater than 3000 nM in experiment [3].

With `C=CC(=O)N1CCc2nn(-c3ccc(C4CCCC4)cc3O)c3c2C(C1)N(C(=O)c1cnc(C(F)(F)F)cc1N)CC3` (stereo not drawn) [Compound 217, 1-(5-(4-amino-6-(trifluoromethyl)nicotinoyl)-2-(4-cyclopentyl-2-hydroxyphenyl)-2,3,4,5,5a,6,8,9-octahydro-7H-1,2,5,7-tetraazabenzo[cd]azulen-7-yl)prop-2-en-1-one], the AC50 in experiment [1] is 0.0015 to 0.005 µM; in experiment [2] (Homo sapiens, HCT-116, 168 h), 1 to 100 nM; in experiment [3] (Homo sapiens, HT-29, 168 h) it was greater than 3000 nM.

Take `C=CC(=O)N1CCc2nn(-c3ccc(C4CC4)c(F)c3O)c3c2C(C1)N(C(=O)c1cnc(C(F)(F)F)c(F)c1N)CC3` (stereo not drawn) [Compound 218, 1-(5-(4-amino-5-fluoro-6-(trifluoromethyl)nicotinoyl)-2-(4-cyclopropyl-3-fluoro-2-hydroxyphenyl)-2,3,4,5,5a,6,8,9-octahydro-7H-1,2,5,7-tetraazabenzo[cd]azulen-7-yl)prop-2-en-1-one]: the AC50 in experiment [1] was 0.005 to 0.015 µM; in experiment [2] (Homo sapiens, HCT-116, 168 h), 1 to 100 nM; in experiment [3] (Homo sapiens, HT-29, 168 h), greater than 3000 nM.

In the case of `C=CC(=O)N1CCc2nn(C34CC(C5CCCC5)(C3)C4)c3c2C(C1)N(C(=O)c1cnc(C(F)(F)F)cc1N)CC3` (stereo not drawn) [Compound 219, 1-(5-(4-amino-6-(trifluoromethyl)nicotinoyl)-2-(3-cyclopentylbicyclo[1.1.1]pentan-1-yl)-2,3,4,5,5a,6,8,9-octahydro-7H-1,2,5,7-tetraazabenzo[cd]azulen-7-yl)prop-2-en-1-one], the results for the AC50 in experiment [1], in experiment [2] and in experiment [3] were 0.005 to 0.015 µM, 1 to 100 nM and greater than 3000 nM, respectively.

Take `C=CC(=O)N1CCc2nn(-c3ccc(C4CC4)cc3)c3c2C(C1)N(C(=O)c1c(N)nc(C(F)(F)F)c(F)c1N)CC3` (stereo not drawn) [Compound 220, 1-(2-(4-cyclopropylphenyl)-5-(2,4-diamino-5-fluoro-6-(trifluoromethyl)nicotinoyl)-2,3,4,5,5a,6,8,9-octahydro-7H-1,2,5,7-tetraazabenzo[cd]azulen-7-yl)prop-2-en-1-one]: the AC50 is 0.0015 to 0.005 µM in experiment [1]; 1 to 100 nM in experiment [2] (Homo sapiens, HCT-116, 168 h); greater than 3000 nM in experiment [3] (Homo sapiens, HT-29, 168 h).

As to `C=CC(=O)N1CCc2nn(-c3ccc(C4CC4)cc3O)c3c2C(C1C)N(C(=O)c1cnc(C(F)(F)F)cc1N)CC3` (stereo not drawn) [Compound 221, 1-(5-(4-amino-6-(trifluoromethyl)nicotinoyl)-2-(4-cyclopropyl-2-hydroxyphenyl)-6-methyl-2,3,4,5,5a,6,8,9-octahydro-7H-1,2,5,7-tetraazabenzo[cd]azulen-7-yl)prop-2-en-1-one], the AC50 is 0.005 to 0.015 µM in experiment [1]; 1 to 100 nM in experiment [2] (Homo sapiens, HCT-116, 168 h); greater than 3000 nM in experiment [3] (Homo sapiens, HT-29, 168 h).

On to `C=CC(=O)N1CC(OC2CC(C#N)C2)c2nn(-c3ccc(C4CC4)cc3O)c3c2C(C1)N(C(=O)c1cnc(C(F)(F)F)cc1N)CC3` (stereo not drawn) [Compound 222, 3-((7-acryloyl-5-(4-amino-6-(trifluoromethyl)nicotinoyl)-2-(4-cyclopropyl-2-hydroxyphenyl)-3,4,5,5a,6,7,8,9-octahydro-2H-1,2,5,7-tetraazabenzo[cd]azulen-9-yl)oxy)cyclobutane-1-carbonitrile], for which the AC50 in experiment [1] was 0.0015 to 0.005 µM; in experiment [2] (Homo sapiens, HCT-116, 168 h) it was 1 to 100 nM; in experiment [3] (Homo sapiens, HT-29, 168 h), greater than 3000 nM.

In the case of `C=CC(=O)N1CCc2nn(-c3ccc(C4CC4)cc3O)c3c2C(C1)N(C(=O)c1cnc(SC)c(F)c1N)CC3` (stereo not drawn) [Compound 223, 1-(5-(4-amino-5-fluoro-6-(methylthio)nicotinoyl)-2-(4-cyclopropyl-2-hydroxyphenyl)-2,3,4,5,5a,6,8,9-octahydro-7H-1,2,5,7-tetraazabenzo[cd]azulen-7-yl)prop-2-en-1-one], the AC50 is 0.0015 to 0.005 µM in experiment [1]; 1 to 100 nM in experiment [2] (Homo sapiens, HCT-116, 168 h); greater than 3000 nM in experiment [3] (Homo sapiens, HT-29, 168 h).

As to `C=CC(=O)N1CCc2nn(-c3cc(F)c(C4CC4)cc3O)c3c2C(C1)N(C(=O)c1cnc(C(F)(F)F)cc1N)CC3` (stereo not drawn) [Compound 224, 1-(5-(4-amino-6-(trifluoromethyl)nicotinoyl)-2-(4-cyclopropyl-5-fluoro-2-hydroxyphenyl)-2,3,4,5,5a,6,8,9-octahydro-7H-1,2,5,7-tetraazabenzo[cd]azulen-7-yl)prop-2-en-1-one], the AC50 in experiment [1] is 0.005 to 0.015 µM; in experiment [2] (Homo sapiens, HCT-116, 168 h), 1 to 100 nM; in experiment [3] (Homo sapiens, HT-29, 168 h), greater than 3000 nM.

On to `C=CC(=O)N1CCc2nn(-c3ccc(C4CC4)cc3CO)c3c2C(C1)N(C(=O)c1cnc(C(F)(F)F)cc1N)CC3` (stereo not drawn) [Compound 225, 1-(5-(4-amino-6-(trifluoromethyl)nicotinoyl)-2-(4-cyclopropyl-2-(hydroxymethyl)phenyl)-2,3,4,5,5a,6,8,9-octahydro-7H-1,2,5,7-tetraazabenzo[cd]azulen-7-yl)prop-2-en-1-one], for which the AC50 in experiment [1] was 0.015 to 0.055 µM; in experiment [2] (Homo sapiens, HCT-116, 168 h), 100 to 250 nM; in experiment [3] (Homo sapiens, HT-29, 168 h) it was greater than 3000 nM.

With `C=CC(=O)N1CCc2nn(-c3ccc(SC(F)(F)F)cc3O)c3c2C(C1)N(C(=O)c1cnc(C(F)(F)F)cc1N)CC3` (stereo not drawn) [Compound 226, 1-(5-(4-amino-6-(trifluoromethyl)nicotinoyl)-2-(2-hydroxy-4-((trifluoromethyl)thio)phenyl)-2,3,4,5,5a,6,8,9-octahydro-7H-1,2,5,7-tetraazabenzo[cd]azulen-7-yl)prop-2-en-1-one], the AC50 in experiment [1] is 0.005 to 0.015 µM; in experiment [2] (Homo sapiens, HCT-116, 168 h), 1 to 100 nM; in experiment [3] (Homo sapiens, HT-29, 168 h), greater than 3000 nM.
